Results on 4 compounds are retold here after paper PMC12682947, “Identification of New KCNT1‐Epilepsy Drugs by In Silico, Cell, and Drosophila Modeling” (Annals of Neurology, 2025).

Where a name gives a salt, the structure may show the parent alone.

The target in the assay is T1, WT KCNT1 channels (Homo sapiens, UniProt Q5JUK3).
T1 construct: YFP-6His; expressed in transfected cells; host or cells: HEK293T
T1 sequence (Q5JUK3 1-1235 isoform Q5JUK3-3): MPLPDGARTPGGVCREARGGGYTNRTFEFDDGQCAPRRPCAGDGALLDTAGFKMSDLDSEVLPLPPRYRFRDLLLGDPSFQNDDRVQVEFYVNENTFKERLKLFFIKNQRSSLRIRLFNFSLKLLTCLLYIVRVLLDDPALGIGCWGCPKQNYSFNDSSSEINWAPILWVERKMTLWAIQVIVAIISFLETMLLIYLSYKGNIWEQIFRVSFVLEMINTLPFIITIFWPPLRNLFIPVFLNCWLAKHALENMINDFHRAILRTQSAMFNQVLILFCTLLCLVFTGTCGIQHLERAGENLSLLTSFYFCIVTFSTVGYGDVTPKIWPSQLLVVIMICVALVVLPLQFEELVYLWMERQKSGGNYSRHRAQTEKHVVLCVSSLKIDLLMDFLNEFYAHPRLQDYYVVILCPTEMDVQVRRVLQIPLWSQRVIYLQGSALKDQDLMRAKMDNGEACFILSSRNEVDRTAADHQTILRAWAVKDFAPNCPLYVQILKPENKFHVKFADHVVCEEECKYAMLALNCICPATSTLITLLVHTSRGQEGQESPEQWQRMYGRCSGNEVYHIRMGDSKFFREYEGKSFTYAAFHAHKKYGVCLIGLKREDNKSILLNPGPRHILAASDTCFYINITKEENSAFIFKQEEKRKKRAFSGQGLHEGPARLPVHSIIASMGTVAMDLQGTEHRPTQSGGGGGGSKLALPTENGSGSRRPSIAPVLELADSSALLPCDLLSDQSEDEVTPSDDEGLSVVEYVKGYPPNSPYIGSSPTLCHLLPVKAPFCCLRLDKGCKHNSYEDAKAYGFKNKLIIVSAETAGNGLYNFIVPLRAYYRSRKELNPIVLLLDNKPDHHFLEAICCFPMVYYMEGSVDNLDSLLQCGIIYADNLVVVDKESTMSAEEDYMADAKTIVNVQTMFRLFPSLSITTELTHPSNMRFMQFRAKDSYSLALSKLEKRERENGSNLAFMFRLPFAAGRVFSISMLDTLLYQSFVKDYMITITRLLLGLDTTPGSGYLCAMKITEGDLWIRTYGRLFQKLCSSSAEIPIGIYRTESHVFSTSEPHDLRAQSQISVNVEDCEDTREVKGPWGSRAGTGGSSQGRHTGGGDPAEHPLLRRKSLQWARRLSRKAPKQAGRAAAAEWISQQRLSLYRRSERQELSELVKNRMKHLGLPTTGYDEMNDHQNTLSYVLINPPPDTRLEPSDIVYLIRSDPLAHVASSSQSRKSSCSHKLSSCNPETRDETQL
The experiment in a line: Inside-out patch clamp of HEK293T cells expressing WT KCNT1 channels. The note with it: inside-out patches; for inhibition at 0.05 µM: HEK-293T, 50 nM, read-out: inhibition of WT human KCNT1 channel activity; for IC50: WT, mean ± SEM. In kind it is cell-based. Here is the method: The CHO cells were cultured in Dulbecco's modified Eagle's Medium (ThermoFisher, UK) supplemented with 10% (v/v) fetal bovine serum, 50 U/ml penicillin and 0.05 mg/ml streptomycin, and incubated at 37°C in 5% CO2 atmosphere. For whole cell recording of WT/Y796H KCNT1, CHO cells were transiently co‐transfected with concatemeric WT/Y796H and EYFP, as described previously.[29] For electrophysiological experiments, cells were plated onto borosilicate glass cover slips and used 2 to 4 days later. Human embryonic kidney 293T cells (HEK293T) were cultured in the same manner, but with medium supplemented with 2 mM L‐glutamine, and 1% (v/v) nonessential amino acids. For excised inside‐out recording of homomeric WT or mutant YFP‐tagged KCNT1, HEK293T cells plated on glass cover slips were transfected using Attractene Transfection Reagent (Qiagen, Germany) according to the manufacturer's instructions and used 2 to 3 days later.
Inside‐out patch clamp recordings were made at room temperature (23°C) from transiently transfected HEK293T cells, as described previously.[11] The pipette solution contained, in mM, 140 NaCl, 4 KCl, 2 CaCl2, 2 MgCl2, and 10 HEPES adjusted to pH 7.4 with NaOH. After achieving the inside‐out configuration, the intracellular face of the membrane was constantly perfused with a solution containing, in mM, 35 NaCl, 110 KCl, 0.2 EGTA, and 10 HEPES adjusted to pH 7.3 with KOH. Drug stock solutions of 5 to 20 mM in DMSO were first diluted in ethanol (1:10) and then in electrophysiological solution. KCNT1 currents were recorded using 2 voltage protocols, depending on the number of active channels in the patch before drug application. Macroscopic currents (number of active channels > 15) were recorded in response to 100 ms voltage ramps between −120 and 120 mV applied every 2 seconds from a holding potential of −78 mV. The average current amplitudes between 0 and 40 mV were used for the analyses and constructing the concentration‐response curves. With a lower number of active channels in the patch (3–15), current traces were recorded in response to 15‐second voltage steps to −20, 0, and 20 mV from a holding potential of −78 mV. Currents recorded at each voltage and each drug concentration were averaged over the duration of the trace and normalized to the average amplitudes of the corresponding current traces in drug‐free solution. The normalized data for all 3 voltage steps were then averaged for each drug concentration and used to build the concentration‐response curves (see Supplementary Fig S3). To determine the IC50, data were fitted with the Hill equation, as described previously.[11] Single channel data were analyzed using Ana software developed by Dr Michael Pusch (Istituto di Biofisica, Genova, Italy; http://users.ge.ibf.cnr.it/pusch/programs-mik.htm). In patch clamp data “n” represents number of cells, and all experiments were repeated using cells from a minimum of 2 separate transfections.

The term inhibition denotes the share of the control response that was lost under treatment. Usually IC50 stands for the concentration that gives 50% inhibition. The low end stands for higher potency, the high end for lower potency. Take `Cc1c(O)cccc1C(=O)N[C@@H](CSc1ccccc1)[C@H](O)CN1C[C@H]2CCCC[C@H]2C[C@H]1C(=O)NC(C)(C)C` [nelfinavir mesylate]: the inhibition at 0.05 µM was more than 60% and the IC50 is 0.0143 ± 0.0026 µM.

On to `O=C(OCCN1CCN(c2cccc(C(F)(F)F)c2)CC1)c1ccccc1Nc1ccnc2cc(C(F)(F)F)ccc12` [antrafenine], for which the inhibition at 0.05 µM is more than 60% and inhibition was half-maximal at 0.0126 ± 0.0036 µM (IC50). For `CNC(=O)c1cc(Oc2ccc(NC(=O)Nc3ccc(Cl)c(C(F)(F)F)c3)c(F)c2)ccn1` [regorafenib], the “inhibition of KCNT1 activity at 10 μM (in words)” value is recorded as “not fully inhibiting”. With `CC(C)c1c(C(=O)Nc2ccccc2)c(-c2ccccc2)c(-c2ccc(F)cc2)n1CC[C@@H](O)C[C@@H](O)CC(=O)O` [atorvastatin], the “inhibition of KCNT1 activity at 10 μM (in words)” value is “not fully inhibiting” and half-maximal inhibition (IC50) required 1.9 ± 0.6 µM.
